Results taken from patent publication US20230348447A1, “OXAZOLIDINONE COMPOUNDS, LIPOSOME COMPOSITIONS COMPRISING OXAZOLIDINONE COMPOUNDS AND METHOD OF USE THEREOF” (priority 2020, published 2023).
≈ marks a conversion by molar mass, not a printed value. Where two headings read alike, the source gives them in different places.

How the values were obtained:
M.tb Erdman = assay: Broth microdilution MIC with Alamar blue endpoint (MABA) / OD600; type: cell-based, Mycobacterium tuberculosis
M.tb H37Rv = assay: as above; type: cell-based, Mycobacterium tuberculosis
[1] = system: African green monkey kidney (Vero; ATCC # CCL81) cells; assay: In vitro cytotoxicity (PrestoBlue cell viability), Vero; type: cell-based
[2] = system: human hepatocyte/liver (HepG2; ATCC #HB8065) cells; assay: In vitro cytotoxicity (PrestoBlue cell viability), HepG2; type: cell-based
[3] = system: M. Tuberculosis Erdman or H37Rv vs VERO or HepG2 cells; assay: Selectivity Index (mammalian cell IC50 / bacterial MIC); design: species or system Mycobacterium tuberculosis
[4] = system: mitochondrial protein synthesis (COX-1/SDH-A ratio) in H9C2 rat heart myoblast cells; assay: Mitochondrial protein synthesis inhibition (MitoBiogenesis in-cell ELISA, COX-1/SDH-A); type: cell-based; details: 120 h, five days, read-out: MPS IC50
MRSA ATCC BAA-1556 = assay: MIC against methicillin resistant Staphylococcus aureus (MRSA)
MRSA ATCC 43300 = assay: as above; details: read-out: MRSA MIC, ATCC 43300
MRSA 880 NR-49120 = assay: as above; details: read-out: MRSA MIC, 880 NR-49120
[5] = Aqueous solubility (visually clear solutions); type: physicochemical; details: aqueous, 1 N HCl and/or water added
Protocol: Working stocks of the compounds were prepared as follows: to an aliquot of a compound (free base) in a powder form 1-1.5 equivalents of HCl in the form of 1 N aqueous solution was added, and the mixture was vortexed until homogeneity. To the resulting cake or syrup, water was added typically to the final 10 mg/ml, and complete dissolution was observed. In some instances, 0.95 equivalents of HCl were added to the free base form of the drug, and 20 mg/ml stock solution was prepared.
Aqueous solubility of the compounds of the present disclosure is illustrated by the following observations of obtaining visually clear solutions: […]

[6] = Liposome loading / encapsulation efficiency (General protocol)
M.avium = assay: MIC in nontuberculosis mycobacteria (microbroth dilution, resazurin); type: cell-based, Mycobacterium avium; details: Mycobacterium avium, read-out: MIC
M. chelonae = assay: as above; type: cell-based, Mycobacterium chelonae; details: Mycobacteroides chelonae, read-out: MIC
M. abscessus = assay: as above; type: cell-based, Mycobacterium abscessus; details: Mycobacteroides abscessus, read-out: MIC
M. kansasii = assay: as above; type: cell-based; details: Mycobacterium kansasii, read-out: MIC
M. massiliense = assay: as above; type: cell-based, Mycobacterium massiliense
[7] = In vitro burst release of liposomal drug in plasma, human; details: mouse or human plasma, 20 min 37° C., 0.5 M AS liposomes, 40-65 mol% Chol (FIG. 5A, 5B)
Protocol: The plasma was thawed, if necessary, adjusted to pH 7.4 with 1 N HCl, and sequentially filtered through glass microfiber filters (GF/C), 1 µm polyethersulfone (PES), and 0.22 µm PES filters. Plasma (80 µl) was mixed with liposomal drug formulations (20 µl) in a 0.5 ml Eppendorf tube. The mixture was subsequently incubated for 20 min at 37° C. and then put into chilled water.
Incubation time was 20 min.

[8] = Mycobacterium tuberculosis, ERDMAN; read-out: Mycobacterium tuberculosis MIC, Erdman
[9] = Mycobacterium tuberculosis, H37RV; as determined in Example 2; read-out: MIC (H37Rv)
[10] = Mycobacterium tuberculosis, H37RV; read-out: Mycobacterium tuberculosis MIC, H37Rv
[11] = Chlorocebus sabaeus, Vero, 72 h; read-out: Cell viability IC50, VERO
[12] = Homo sapiens, HepG2, 72 h; read-out: Cell viability IC50, HepG2
[13] = read-out: MRSA MIC, ATCC BAA-1556
[14] = Mycobacterium tuberculosis, ERDMAN, read-out: Mycobacterium tuberculosis MIC, Erdman
[15] = Mycobacterium tuberculosis, H37RV, read-out: MIC (H37Rv)
[16] = Mycobacterium tuberculosis, H37RV, read-out: Mycobacterium tuberculosis MIC, H37Rv
[17] = Chlorocebus sabaeus, Vero, 72 h, read-out: Cell viability IC50, VERO
[18] = Homo sapiens, HepG2, 72 h, read-out: Cell viability IC50, HepG2
[19] = 1 N TEA-SOS, DL0 750-1500 g/mol PhL, no buffer
[20] = Mycobacterium tuberculosis; M. tuberculosis Erdman / H37Rv, strains not separated; read-out: MIC

Cl.NCCn1nnnc1-c1ccc(-c2ccc(N3C[C@H](CO)OC3=O)cc2F)cn1 [AKG-22]
MIC (M.tb Erdman; [8]): 1 mg/L
MIC (M.tb H37Rv; [9]): 0.5 mg/L
MIC (M.tb H37Rv; [10]): 0.5 mg/L
IC50 [1, 11]: 57.7 mg/L
IC50 [2, 12]: 17.2 mg/L
Selectivity Index (SI) Erd/HepG2 [3]: 17.2
Selectivity Index (SI) Erd/VERO [3]: 57.7
IC50 [4]: 1.18 mg/L
MIC (MRSA ATCC BAA-1556; [13]): 1.85 to 5.55 mg/L
MIC (MRSA ATCC 43300): 16.7 mg/L
MIC (MRSA 880 NR-49120): 5.55 mg/L

Cl.Cl.NCCn1nnc(-c2ccc(-c3ccc(N4C[C@H](CN)OC4=O)cc3F)cn2)n1 [AKG-29]
MIC (M.tb Erdman; [14]): 0.25 mg/L
MIC (M.tb H37Rv; [15]): 0.125 mg/L
MIC (M.tb H37Rv; [16]): 0.125 mg/L
IC50 [1, 17]: 110 mg/L
IC50 [2, 18]: 74.4 mg/L
Selectivity Index (SI) Erd/HepG2 [3]: 297.6
Selectivity Index (SI) Erd/VERO [3]: 439.6
IC50 [4]: 4.11 mg/L
MIC (MRSA ATCC BAA-1556; read-out: MRSA MIC): > 50 mg/L
MIC (MRSA ATCC BAA-1556; [13]): 50 mg/L
MIC (MRSA ATCC 43300): > 50 mg/L
MIC (MRSA 880 NR-49120): 50 mg/L

CN(C)CCn1nnc(-c2ccc(-c3ccc(N4C[C@H](CO)OC4=O)cc3F)cn2)n1 [AKG-16]
MIC (M.tb Erdman; [8]): 0.25 mg/L (≈ 0.585 µM)
MIC (M.tb H37Rv; [9]): 0.25 mg/L (≈ 0.585 µM)
MIC (M.tb H37Rv; [10]): 0.25 mg/L (≈ 0.585 µM)
IC50 [1, 11]: 97 mg/L (≈ 227 µM)
IC50 [2, 12]: 91 mg/L (≈ 213 µM)
Concentration % (w/w) of free base (visually clear solution) [5]: 30.0 % (w/w)
IC50 [4]: 0.244 mg/L (≈ 0.571 µM)
MIC (MRSA ATCC BAA-1556; [13]): 1.85 mg/L (≈ 4.33 µM)
MIC (MRSA ATCC 43300): 1.85 mg/L (≈ 4.33 µM)
MIC (MRSA 880 NR-49120): 1.85 mg/L (≈ 4.33 µM)
Maximum encapsulated drug payload ([6]; 0.5 M AS, 0.5 mol% PEG): 668-675 g/mol PhL
Maximum encapsulated drug payload ([6]; 0.5 M AS, 5 mol% PEG): 614-619 g/mol PhL
maximum drug load [6, 19]: 938-951 g/mol PhL

CCN(CC)CCn1nnc(-c2ccc(-c3ccc(N4C[C@H](CNC(C)=O)OC4=O)cc3F)cn2)n1 [AKG-39]
MIC (M.tb Erdman; [8]): 0.5 mg/L (≈ 1.01 µM)
MIC (M.tb Erdman; [20]): 0.5 mg/L (≈ 1.01 µM)
MIC (M.tb H37Rv; [9]): 0.5 mg/L (≈ 1.01 µM)
MIC (M.tb H37Rv; [10]): 0.5 mg/L (≈ 1.01 µM)
IC50 [1, 11]: 201 mg/L (≈ 405 µM)
IC50 [2, 12]: 70 mg/L (≈ 141 µM)
Selectivity Index (SI) Erd/HepG2 [3]: 140.0
Selectivity Index (SI) Erd/VERO [3]: 402.0
IC50 [4]: 0.06 mg/L (≈ 0.121 µM)
MIC (MRSA ATCC BAA-1556; [13]): 1.85 mg/L (≈ 3.73 µM)
MIC (MRSA ATCC 43300): 1.85 mg/L (≈ 3.73 µM)
MIC (MRSA 880 NR-49120): 1.85 mg/L (≈ 3.73 µM)

CCN(CC)CCCn1nnc(-c2ccc(-c3ccc(N4C[C@H](CNC(C)=O)OC4=O)cc3F)cn2)n1 [AKG-40]
Mycobacterium tuberculosis MIC, Erdman (M.tb Erdman): 1 to 2 mg/L
MIC (M.tb Erdman; [8]): 1 mg/L (≈ 1.96 µM)
Mycobacterium tuberculosis MIC, H37Rv (M.tb H37Rv): 0.5 mg/L
MIC (M.tb H37Rv; [9]): 0.5 mg/L (≈ 0.979 µM)
MIC (M.tb H37Rv; [10]): 0.5 mg/L (≈ 0.979 µM)
IC50 [1, 11]: > 250 mg/L
IC50 [2, 12]: 113 mg/L (≈ 221 µM)
Selectivity Index (SI) Erd/HepG2 [3]: 113.0
Selectivity Index (SI) Erd/VERO [3]: >250.0
IC50 [4]: 0.064 mg/L (≈ 0.125 µM)
MIC (MRSA ATCC BAA-1556; [13]): 1.85 mg/L (≈ 3.62 µM)
MIC (MRSA ATCC 43300): 5.55 mg/L (≈ 10.9 µM)
MIC (MRSA 880 NR-49120): 1.85 mg/L (≈ 3.62 µM)

CC(=O)NC[C@H]1CN(c2ccc(-c3ccc(-c4nnn(CCN(C)C)n4)nc3)c(F)c2)C(=O)O1 [AKG-38]
MIC (M.tb Erdman; [8]): 0.06 mg/L (≈ 0.128 µM)
MIC (M.tb Erdman; [20]): 0.06 mg/L (≈ 0.128 µM)
MIC (M.tb H37Rv; [9]): 0.06 mg/L (≈ 0.128 µM)
MIC (M.tb H37Rv; [10]): 0.06 mg/L (≈ 0.128 µM)
IC50 [1, 11]: 395 mg/L (≈ 843 µM)
IC50 [2, 12]: 97 mg/L (≈ 207 µM)
Concentration % (w/w) of free base (visually clear solution) [5]: 7.1 % (w/w)
IC50 [4]: 0.041 mg/L (≈ 0.0875 µM)
MIC (M.avium; M. avium sbsp. avium strain 2285 R): 0.06 mg/L (≈ 0.128 µM)
MIC (M.avium; M. avium sbsp. avium strain 2285 S): 0.125 mg/L (≈ 0.267 µM)
MIC (M.avium; M. avium sbsp. avium strain 3993): 0.125 mg/L (≈ 0.267 µM)
MIC (M. chelonae; M. chelonae strain 49): 0.06 mg/L (≈ 0.128 µM)
MIC (M. chelonae; M. chelonae strain 69): 0.5 mg/L (≈ 1.07 µM)
MIC (M. chelonae; M. chelonae strain 35752): 0.06 mg/L (≈ 0.128 µM)
MIC (M. abscessus; M. abscessus sbsp. abscessus strain 21): 0.06 mg/L (≈ 0.128 µM)
MIC (M. abscessus; M. abscessus sbsp. abscessus strain 1513): 32 mg/L (≈ 68.3 µM)
MIC (M. abscessus; M. abscessus sbsp. abscessus strain 1948): 0.06 mg/L (≈ 0.128 µM)
MIC (M. kansasii; M. kansasii strain 662): > 32 mg/L
MIC (M. kansasii; M. kansasii strain 732): 0.03 mg/L (≈ 0.064 µM)
MIC (M. kansasii; M. kansasii strain 824): 0.06 mg/L (≈ 0.128 µM)
MIC (M. kansasii; M. kansasii strain MK13D6): 0.03 mg/L (≈ 0.064 µM)
MIC (M. kansasii; M. kansasii strain WT171017): 0.03 mg/L (≈ 0.064 µM)
MIC (M. massiliense; M. massiliense strain M154): 0.25 mg/L (≈ 0.534 µM)
MIC (M. massiliense; Mycobacteroides abscessus, CIP108297, M. massiliense strain CIP 108297, read-out: MIC): 0.5 mg/L (≈ 1.07 µM)
MIC (M. massiliense; Mycobacteroides abscessus, M. massiliense strain CRM0019, read-out: MIC): 0.25 mg/L (≈ 0.534 µM)
burst release phenomenon in plasma in vitro [7]: observed in both human and mouse plasma for the formulations with cholesterol content of 40 mol.% and 45 mol.%, but not at cholesterol content of 50 mol.% or more
MIC (MRSA ATCC BAA-1556; [13]): 1.85 mg/L (≈ 3.95 µM)
MIC (MRSA ATCC 43300): 1.85 mg/L (≈ 3.95 µM)
MIC (MRSA 880 NR-49120): 0.617 mg/L (≈ 1.32 µM)
maximum drug load ([6]; 0.5 M AS, HSPC:Chol 3:2, 0.5 mol% PEG-DSG (Example 14)): 818-842 g/mol PhL
maximum drug load ([6]; 1 N TEA-SOS, HSPC:Chol 3:2, 0.5 mol% PEG-DSG (Example 14)): 989 g/mol PhL
liposome aggregation during drug loading ([6]; 30 mol% cholesterol, 1 N TEA-SOS, AKG-28: 5 mol% PEG-DSG or PEG-DSPE, AKG-38: 5 mol% PEG-DSPE): irreversibly aggregated during the drug loading
drug load ([6]; 30 mol% cholesterol, 5 mol % PEG-DSG, 1 N TEA-SOS): 462.4 g/mol PhL

Cl.Cn1nnc(-c2ccc(-c3ccc(N4C[C@H](CN)OC4=O)cc3F)cn2)n1 [AKG-3]
MIC (M.tb Erdman; [14]): 0.125 mg/L
MIC (M.tb H37Rv; [15]): 0.06 mg/L
MIC (M.tb H37Rv; [16]): 0.06 mg/L
IC50 [1, 17]: 17.8 mg/L
IC50 [2, 18]: 21.2 mg/L
Selectivity Index (SI) Erd/HepG2 [3]: 169.6
Selectivity Index (SI) Erd/VERO [3]: 142.4
IC50 [4]: 0.115 mg/L
MIC (MRSA ATCC BAA-1556; read-out: MRSA MIC): > 50 mg/L
MIC (MRSA ATCC BAA-1556; [13]): 50 mg/L
MIC (MRSA ATCC 43300): 50 mg/L
MIC (MRSA 880 NR-49120): 50 mg/L
Maximum encapsulated drug payload ([6]; 0.5 M AS, 0.5 mol% PEG): 590 g/mol PhL
Maximum encapsulated drug payload ([6]; 0.5 M AS, 5 mol% PEG): 600-606 g/mol PhL
loading efficiency at or near the maximum drug load ([6]; 1 N TEA-SOS, DL0 750-1500 g/mol PhL): at least 97.6%
maximum drug load [6, 19]: 900-930 g/mol PhL
Drug loading efficiency ([6]; PEG-DSG 0.5 mol%, 1 N TEA-SOS, DL0 500 g/mol PhL): 100.8
Drug loading efficiency ([6]; PEG-DSG 0.5 mol%, […] AS, DL0 250 g/mol PhL): 100.4
Drug loading efficiency ([6]; PEG-DSG 0.5 mol%, […] AS, DL0 500 g/mol PhL): 80.3
Drug loading efficiency ([6]; PEG-DSG 5 mol%, 1 N TEA-SOS, DL0 500 g/mol PhL): 107.4
